Measurements reported in patent US20200237742A1, “Serdexmethylphenidate Conjugates, Compositions And Methods Of Use Thereof” (priority 2018, published 2020).
Where a name gives a salt, the structure may show the parent alone.

Test system: recreational stimulant abusers
Test: Intravenous abuse potential study, VAS pharmacodynamic assessments
Type: in vivo, human
Text: “Drug liking” score, used herein, is the score used to assess the degree that a human participant likes a drug effect at the time the question is being asked (that is, at the moment). It is scored using a 0 to 100 point bipolar visual analogue scale (VAS) anchored in the center with a neutral anchor of “neither like nor dislike” (score of 50), on the left with “strong disliking” (score of 0) and on the right with “strong liking” (score of 100).
“Euphoria” or “Feeling High” score, used herein, is the term to describe the score used to assess the degree that a human participant is high at the time the question is being asked (that is, at the moment). It is scored using a 0 to 100 point unipolar visual analogue scale (VAS) anchored on the left with “Not at All” (score of 0) and on the right with “Extremely” (score of 100).
“Take Drug Again” score, used herein, is the term to describe the score used to assess the degree that a human participant wants to take the drug again, if given the opportunity, based on his/her opinion now, i.e., at the time the question is being asked. It is scored using a 0 to 100 point unipolar visual analogue scale (VAS) anchored on the left with “Definitely Would Not” (score of 0) and on the right with “Definitely Would” (score of 100).
“Overall Drug Liking” score, used herein, is the term to describe the score used to assess the human subject's global perception of drug liking (i.e., the subjective effects over the whole course of the drug experience including any carryover effects). Subjects respond to the statement “Overall, my liking for this drug is.” The question is scored using a 0-100 point bipolar VAS anchored on the left with “Strong Disliking” (score of 0); “Neither Like nor Dislike” (score of 50) in the middle, and anchored on the right with “Strong Liking” (score of 100). This scale has the advantage of the human subject being relatively less affected or unaffected by acute study drug effects (if any) by the time of the assessment.
“Good Effects” score, used herein, is the term to describe the score used to assess the degree that a human participant is feeling good drug effects at the time the question is being asked (that is, at the moment). Subjects respond to the statement “At this moment, I can feel good drug effects.” It is scored using a 0 to 100 point unipolar visual analogue scale (VAS) anchored on the left with “Not at All” (score of 0) and on the right with “Extremely” (score of 100).
Safety assessments were performed throughout the study.

[1] = 12 hours, SDX Cl 30 mg, d-MPH HCl 15 mg
[2] = 12 hours, d-MPH HCl 15 mg vs SDX Cl 30 mg
[3] = 24 hours, d-MPH HCl 15 mg vs SDX Cl 30 mg
[4] = Emax, d-MPH HCl 15 mg vs SDX Cl 30 mg
[5] = d-MPH HCl 15 mg vs SDX Cl 30 mg

For `COC(=O)[C@H](c1ccccc1)[C@H]1CCCCN1` [d-methylphenidate hydrochloride, d-threo-methylphenidate hydrochloride], the “Mean Overall Drug Liking” value [1] was 68.0, the “Median Overall Drug Liking” value [1] was 73.0 and the “Mean Difference Take Drug Again, B vs A” value [2] was 43.3. The “Overall Drug Liking, Median difference B vs A” value [2] was 16.0, the “Mean Difference Take Drug Again, B vs A” value [3] was 39.2 and the “Overall Drug Liking, Median difference B vs A” value [3] was 13.5. For the same compound, the “Mean Difference Take Drug Again, B vs A” value [4] was 43.1, the “Overall Drug Liking, Median difference B vs A” value [4] was 18.0 and the “Feeling High Emax, Median difference B vs A” value [5] was 67.0. The “Good Effects Emax, Median difference B vs A” value [5] was 73.0 and the “Median Difference Drug Liking Emax, B vs A” value (d-MPH HCl 15 mg vs SDX Cl 30 mg, bipolar VAS) was 29.0.
